For the assay, the system named is HeLa. As to the kind of experiment: Toxicity (EC50) in HeLa cells. It counts as cell-based. As to conditions: Homo sapiens, footnote b, read-out: EC50 values Mammal HeLa. An excerpt: Fig 1 Labelling and detection of B-THP-T target(s). (A) Structures of chamuvarinin and simplified analogues thereof as probes used in this study and their respective toxicity in selected cell lines. Bi-functional compound 3 contains a diazirine (blue) to cross-link the compound to its target and an alkyne handle (red) to which an azide-containing reporter probe can be added. Mono-functional compound 2 contains the diazirine to cross-link to its target but lacks the alkyne handle and cannot be appended with an azide reporter probe. Lead B-THP-T, compound 1, lacks both diazirine and alkyne. The additional functional groups on compounds 2 and 3 are minor alterations, which have little effect on inhibitor potency. (B) Overview of the in vivo pulse-chase photo-affinity labelling procedure. B-THP-T were incubated with live PF T. brucei cells and trafficked to their targets. Following UV-irradiation, only compounds containing a diazirine (i.e. compounds 2 and 3) could cross-link with target proteins. The subsequent “click reaction” appended the conjugated B-THP-T with a reporter probe as long as an alkyne handle was present (i.e. on compound 3). Refer to the experimental section for details. (C) Detection of Cy5.5-tagged proteins following photo-affinity labelling. Proteins were separated by SDS-PAGE and conjugated Cy5.5 was detected at 700 nm. […]

Among the data in PMC5608556, “Photo-affinity labelling and biochemical analyses identify the target of trypanocidal simplified natural product analogues” (PLoS Neglected Tropical Diseases, 2017) are EC50 values, retold here.

With `C#CCNC(=O)CCC[C@H]1CC2(C[C@@H](Cn3cc([C@@H]4CCC[C@H](CCCCOCc5ccccc5)O4)nn3)O1)N=N2` [Compound 3], the 50% effective concentration (EC50) worked out at 21.3 ± 2 µM.

As usually defined, the EC50 is the midpoint of the concentration-response curve.
